The record followed here is US20210253562A1, “ACYLSUFONAMIDE COMPOUNDS USEFUL AS EP3 RECEPTOR ANTAGONISTS” (Janssen Pharmaceutica NV, priority 2018, published 2021).

The Ki is the equilibrium dissociation constant of an inhibitor or competing ligand from its target. Lower therefore signals a stronger hold on the target. A word on the IC50: it is the point on the concentration scale where inhibition reaches its midpoint.

The structures appear in SMILES notation. Read-outs that look alike come from different tables or passages of the source.

Assay [1] addresses T1, EP3 membrane (EP3 receptor) (Homo sapiens, UniProt P43115).
T1 construct: purchased Millipore HTS092M
T1 sequence (P43115 1-390): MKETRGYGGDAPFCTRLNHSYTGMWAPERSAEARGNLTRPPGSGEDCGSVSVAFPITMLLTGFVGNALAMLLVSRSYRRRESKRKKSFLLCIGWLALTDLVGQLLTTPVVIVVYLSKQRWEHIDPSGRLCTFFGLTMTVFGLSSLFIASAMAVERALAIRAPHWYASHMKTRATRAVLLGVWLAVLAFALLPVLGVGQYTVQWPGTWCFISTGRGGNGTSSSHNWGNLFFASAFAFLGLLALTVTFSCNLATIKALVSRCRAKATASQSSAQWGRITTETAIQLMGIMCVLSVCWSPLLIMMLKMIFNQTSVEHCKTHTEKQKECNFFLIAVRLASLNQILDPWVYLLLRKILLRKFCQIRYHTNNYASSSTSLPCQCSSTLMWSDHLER
The assay is described as follows: [3H]-PGE2 binding; EP3 competition binding (SPA). The method, boiled down:
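SPA competition at room temperature, 2 h: EP3 membranes 2 μg/well, 2 nM [3H]-PGE2, 0.1% DMSO, in Tris/MgCl2/EDTA buffer pH 7.4. Compounds in 1:3 serial dilution; scintillation read; Ki by one-site nonlinear fit.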

Assay [2] has as its target T2, CHO cells over-expressing the EP3 receptor (Homo sapiens, UniProt P43115).
T2 construct: expressed in transfected cells; host or cells: CHO cells
T2 sequence (P43115 1-390): T1 sequence (P43115 1-390)
The assay is described as follows: CHO cell cAMP assay; EP3 cAMP antagonist dose response (sulprostone reference), HTRF. Conditions: sulprostone 700 nM (EC80) and FSK 2 μM (EC70); read-out: CHO_cAMP IC50. The class given is cell-based. An outline of the steps:
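EP3-overexpressing CHO cells pre-incubated with test compound, then stimulated 30 min at 37 °C with FSK (2 μM, EC70) plus sulprostone (700 nM, EC80); antagonism seen as restored cAMP. cAMP measured by HTRF 665/615 ratio, converted via on-plate standard curve. IC50 from Hill fit of 11-point dosing.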
Background: cAMP levels reflect the balance of adenylyl cyclase and phosphodiesterase activity.

With `COc1ccc(S(=O)(=O)NC(=O)NC/C=C2\COCc3cnn(Cc4ccc(Cl)cc4Cl)c32)cc1` [Compound #62, (Z)—N-((2-(1-(2,4-dichlorobenzyl)-1,4-dihydropyrano[4,3-c]pyrazol-7(6H)-ylidene)ethyl)carbamoyl)-4-methoxybenzenesulfonamide], the Ki in assay [1] is 63 nM. In assay [2], the 50% inhibitory concentration (IC50) turned out to be 245 nM.
In the same order, the values of `CN(C/C(F)=C1\CCCc2cnn(Cc3ccc(Cl)cc3Cl)c21)C(=O)NS(=O)(=O)c1cc(Cl)c(Cl)s1` [Compound #59, (Z)-4,5-dichloro-N-((2-(1-(2,4-dichlorobenzyl)-1,4,5,6-tetrahydro-7H-indazol-7-ylidene)-2-fluoroethyl)(methyl)carbamoyl)thiophene-2-sulfonamide] are 5 nM and 12 nM.
In the same order, the values of `O=C(C/C=C1\CCCc2cnn(Cc3ccc(Cl)cc3Cl)c21)NS(=O)(=O)c1cc2ccccc2s1` [Compound #25, (E)-N-(benzo[b]thiophen-2-ylsulfonyl)-3-(1-(2,4-dichlorobenzyl)-1,4,5,6-tetrahydro-7H-indazol-7-ylidene)propenamide] are 51 nM and 251 nM.
In the same order, the values of `O=C(NC/C=C1\CC(F)(F)Cc2cnn(-c3cccc(C(F)(F)F)c3)c21)NS(=O)(=O)c1ccc(Cl)cc1` [Compound #70, (E)-4-chloro-N-((2-(5,5-difluoro-1-(3-(trifluoromethyl)phenyl)-1,4,5,6-tetrahydro-7H-indazol-7-ylidene)ethyl)carbamoyl)benzenesulfonamide] are 1000 nM and 8200 nM.
Consider `O=C(NC/C=C1\CCCc2cnn(Cc3ccc(Cl)cc3Cl)c21)NS(=O)(=O)c1cc2ccccc2s1` [Compound #27, (E)-N-((2-(1-(2,4-dichlorobenzyl)-1,4,5,6-tetrahydro-7H-indazol-7-ylidene)ethyl)carbamoyl)benzo[b]thiophene-2-sulfonamide], for which, in assay [1], the affinity corresponds to a Ki of 5 nM. Also, the IC50 in assay [2] turned out to be 13 nM.
The molecule `O=C(C/C(F)=C1\CCCc2cnn(Cc3ccc(Cl)cc3Cl)c21)NS(=O)(=O)c1cc(Cl)c(Cl)s1` [Compound #93, (Z)-3-(1-(2,4-dichlorobenzyl)-1,4,5,6-tetrahydro-7H-indazol-7-ylidene)-N-((4,5-dichlorothiophen-2-yl)sulfonyl)-3-fluoropropanamide] registered a Ki in assay [1] of 6 nM. Further, the IC50 in assay [2] was determined as 17 nM.
In the same order, the values of `COc1ccc(S(=O)(=O)NC(=O)NC/C=C2\COCc3cnn(Cc4ccc(Cl)cc4Cl)c32)cn1` [Compound #67, (Z)—N-((2-(1-(2,4-dichlorobenzyl)-1,4-dihydropyrano[4,3-c]pyrazol-7(6H)-ylidene)ethyl)carbamoyl)-6-methoxypyridine-3-sulfonamide] are 26 nM and 74 nM.
The matching figures for `COc1ccc(Cl)cc1S(=O)(=O)NC(=O)CC/C=C1\CCCc2cnn(Cc3ccc(Cl)cc3Cl)c21` [Compound #38, (E)-N-((5-chloro-2-methoxyphenyl)sulfonyl)-4-(1-(2,4-dichlorobenzyl)-1,4,5,6-tetrahydro-7H-indazol-7-ylidene)butanamide]: 3 nM and 7 nM.
In the same order, the values of `O=C(C/C=C1\CCCc2cnn(Cc3ccc(Cl)cc3Cl)c21)NS(=O)(=O)c1cc2ccccc2o1` [Compound #26, (E)-N-(benzofuran-2-ylsulfonyl)-3-(1-(2,4-dichlorobenzyl)-1,4,5,6-tetrahydro-7H-indazol-7-ylidene)propenamide] are 85 nM and 699 nM.
As to `Cc1cc(S(=O)(=O)NC(=O)NC/C(F)=C2\CCCc3cnn(Cc4ccc(Cl)cc4Cl)c32)sc1Cl` [Compound #149, (Z)-5-chloro-N-((2-(1-(2,4-dichlorobenzyl)-1,4,5,6-tetrahydro-7H-indazol-7-ylidene)-2-fluoroethyl)carbamoyl)-4-methylthiophene-2-sulfonamide], in assay [1], affinity was put at a Ki of 2 nM. For the same molecule, the IC50 in assay [2] worked out at 6 nM.
The matching figures for `O=C(NC/C(F)=C1\CCCc2cnn(Cc3ccc(Cl)cc3Cl)c21)NS(=O)(=O)c1cccc(Cl)c1` [Compound #91, (Z)-3-chloro-N-((2-(1-(2,4-dichlorobenzyl)-1,4,5,6-tetrahydro-7H-indazol-7-ylidene)-2-fluoroethyl)carbamoyl)benzenesulfonamide]: 18 nM and 34 nM.
In the same order, the values of `CS(=O)(=O)c1ccc(-n2ncc3c2/C(=C/CNC(=O)NS(=O)(=O)c2cc(Cl)c(Cl)s2)CCC3)cc1` [Compound #126, (E)-4,5-dichloro-N-((2-(1-(4-(methylsulfonyl)phenyl)-1,4,5,6-tetrahydro-7H-indazol-7-ylidene)ethyl)carbamoyl)thiophene-2-sulfonamide] are 1 nM and 30 nM.
The matching figures for `O=C(NC/C(F)=C1\CCCc2cnn(Cc3ccc(C(F)(F)F)cc3)c21)NS(=O)(=O)c1cc2ccccc2o1` [Compound #132, (Z)—N-((2-fluoro-2-(1-(4-(trifluoromethyl)benzyl)-1,4,5,6-tetrahydro-7H-indazol-7-ylidene)ethyl)carbamoyl)benzofuran-2-sulfonamide]: 350 nM and 3900 nM.
Turning to `O=C(NC/C(F)=C1\CCCc2onc(-c3ccc(Cl)cc3)c21)NS(=O)(=O)c1ccc(Cl)cc1` [Compound #97, (Z)-4-chloro-N-((2-(3-(4-chlorophenyl)-6,7-dihydrobenzo[d]isoxazol-4(5H)-ylidene)-2-fluoroethyl)carbamoyl)benzenesulfonamide], the Ki in assay [1] came to 4900 nM. Also, in assay [2], the IC50 was more than 20000 nM.
The molecule `O=C(NC/C(F)=C1\CCCc2cnn(Cc3ccc(Cl)cc3Cl)c21)NS(=O)(=O)c1cc2ccccc2s1` [Compound #121, (Z)—N-((2-(1-(2,4-dichlorobenzyl)-1,4,5,6-tetrahydro-7H-indazol-7-ylidene)-2-fluoroethyl)carbamoyl)benzo[b]thiophene-2-sulfonamide] returned a Ki in assay [1] of 17 nM. For the same molecule, in assay [2], the IC50 was determined as 159 nM.
Turning to `O=C(NC/C=C1\CCCc2cnn(Cc3cnc(-c4ccccc4)nc3)c21)NS(=O)(=O)c1cc(Cl)c(Cl)s1` [Compound #138, (E)-4,5-dichloro-N-((2-(1-((2-phenylpyrimidin-5-yl)methyl)-1,4,5,6-tetrahydro-7H-indazol-7-ylidene)ethyl)carbamoyl)thiophene-2-sulfonamide], in assay [1] (unit nM), affinity was put at a Ki of 0.4 nM. The IC50 in assay [2] came out at 6 nM.
For the molecule `O=C(NC/C(F)=C1\CCCc2cnn(Cc3ccc(Cl)cc3Cl)c21)NS(=O)(=O)c1ccc(Cl)cc1` [Compound #86, (Z)-4-chloro-N-((2-(1-(2,4-dichlorobenzyl)-1,4,5,6-tetrahydro-7H-indazol-7-ylidene)-2-fluoroethyl)carbamoyl)benzenesulfonamide], the Ki in assay [1] was 28 nM. Also, the IC50 in assay [2] was found to be 69 nM.
In assay [1], `O=C(NC/C(F)=C1/CCCCc2cnn(Cc3ccc(Cl)cc3Cl)c21)NS(=O)(=O)c1ccc(Cl)cc1` [Compound #102, (E)-4-chloro-N-((2-(1-(2,4-dichlorobenzyl)-4,5,6,7-tetrahydrocyclohepta[c]pyrazol-8(1H)-ylidene)-2-fluoroethyl)carbamoyl)benzenesulfonamide] returned a Ki of more than 10000 nM. In addition, in assay [2], the IC50 is more than 20000 nM.
